Test results as given in patent publication US11840686B2, “Modulation of prekallikrein (PKK) expression” (Ionis Pharmaceuticals, Inc., priority 2013, dated 2023).
Strand notation (5' to 3'): a small letter for the sugar, then the base; units joined by * are phosphorothioate-linked, units joined directly phosphodiester-linked; [ ] holds rarer units or linkages, { } end groups; capitals alone tell only the bases. e = 2'-O-(2-methoxyethyl) (MOE); k = constrained ethyl (cEt); [5mC] = 5-methylcytosine; d = 2'-deoxy (DNA)

Test system: human PKK mRNA
Test: Antisense inhibition of human PKK mRNA in HepaRG cells, 1,000 nM, MOE/deoxy/cEt oligonucleotides (Example 3)
Assay type: cell-based
How it was run: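 Readout is percent PKK mRNA reduction against untreated controls, by real-time PCR (RTS3454) adjusted for total RNA via RIBOGREEN. Oligonucleotides, phosphorothioate gapmers of 16 nucleosides with cEt, MOE and deoxy sugars, were delivered at 1,000 nM by electroporation to 20,000 HepaRG cells/well for roughly 24 h.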

[1] = HepaRG cells, electroporation with 1,000 nM antisense oligonucleotide, approx. 24 hours, PKK mRNA by RT-PCR (RTS3454), relative to untreated control cells, Table 26 experiment
[2] = Table 27, HepaRG cells, 1,000 nM antisense oligonucleotide, human PKK mRNA
[3] = PKK mRNA, HepaRG cells, 1,000 nM antisense oligonucleotide, Table 31
[4] = HepaRG cells, 1,000 nM antisense oligonucleotide, Table 29
[5] = Table 30, human PKK mRNA, HepaRG cells, 1,000 nM antisense oligonucleotide
[6] = Table 19, HepaRG cells, electroporation with 1,000 nM antisense oligonucleotide, approximately 24 hours, PKK mRNA by RT-PCR (RTS3454), relative to untreated control cells
[7] = HepaRG cells, electroporation with 1,000 nM antisense oligonucleotide, approximately 24 hours, primer probe set RTS3454, relative to untreated control cells, experiment of Table 24
[8] = Table 28, HepaRG cells, 1,000 nM antisense oligonucleotide, human PKK mRNA
[9] = HepaRG cells, electroporation with 1,000 nM antisense oligonucleotide, approximately 24 hours, primer probe set RTS3454, relative to untreated control cells, experiment of Table 23
[10] = HepaRG cells, electroporation with 1,000 nM antisense oligonucleotide, approx. 24 hours, PKK mRNA by RT-PCR (RTS3454), relative to untreated control cells, Table 25 experiment
[11] = Table 20, HepaRG cells, electroporation with 1,000 nM antisense oligonucleotide, approximately 24 hours, PKK mRNA by RT-PCR (RTS3454), relative to untreated control cells
[12] = Table 22 experiment, HepaRG cells, electroporation with 1,000 nM antisense oligonucleotide, approx. 24 hours, PKK mRNA by RT-PCR (RTS3454), relative to untreated control cells

With “548289 (e[5mC]*eA*kT*dG*dA*dT*dA*d[5mC]*d[5mC]*dA*d[5mC]*dA*d[5mC]*k[5mC]*kA*e[5mC]; antisense) [compound 548289]” the “% inhibition” value [1] was 28%.
With “548375 (eT*e[5mC]*kG*dA*d[5mC]*dT*dT*d[5mC]*dT*d[5mC]*d[5mC]*dT*dG*kT*k[5mC]*eT; antisense) [compound 548375]” the “% inhibition” value [2] was 27%.
“548322 (eA*eG*kG*dG*dA*dA*dA*dT*dT*dA*dG*dA*dG*kG*k[5mC]*eA; antisense) [compound 548322]” was tested, and the “% inhibition” value [2] was 38%.
In the case of “548373 (eT*e[5mC]*k[5mC]*d[5mC]*d[5mC]*dA*dA*dG*dA*dT*dT*dA*dT*kG*kT*eG; antisense) [compound 548373]”, the “% inhibition” value [2] is reported as 16%.
With “548624 (antisense eT*e[5mC]*kT*dA*dG*dG*dG*d[5mC]*d[5mC]*dA*d[5mC]*dA*d[5mC]*k[5mC]*kT*e[5mC]) [compound 548624]” the “% inhibition” value [3] was 24%.
“548572 (eG*e[5mC]*kA*dT*dT*dA*d[5mC]*dT*d[5mC]*dA*dG*d[5mC]*dA*kT*kG*eT; antisense) [compound 548572]” was tested, and the “% inhibition” value [4] was 63%.
“548553 (antisense e[5mC]*e[5mC]*k[5mC]*dG*dA*dA*dG*dA*dG*dT*d[5mC]*dA*dA*kG*kT*e[5mC]) [compound 548553]” was tested, and the “% inhibition” value [4] was 46%.
“548390 (eG*e[5mC]*kT*dG*dA*dG*dT*dG*dT*dG*dA*d[5mC]*dT*kT*kA*eA; antisense) [compound 548390]” was tested, and the “% inhibition” value [5] was 43%.
With “548309 (eA*eG*kA*d[5mC]*dA*dG*dT*dT*dG*dG*dT*dG*dG*kT*kT*eT; antisense) [compound 548309]” the “% inhibition” value [2] was 41%.
“548352 (antisense eG*eA*kG*dA*dG*dA*dG*dA*dT*dG*dT*dT*d[5mC]*k[5mC]*k[5mC]*eT) [compound 548352]” was tested, and the “% inhibition” value [2] was 47%.
For “548110 (antisense eT*eG*k[5mC]*dA*dT*d[5mC]*dT*dG*dA*dG*d[5mC]*dT*dT*kT*kT*e[5mC]) [compound 548110]”, the “% inhibition” value [6] was 62%.
With “548011 (e[5mC]*e[5mC]*kA*dG*dT*dG*dT*dT*dA*d[5mC]*dA*d[5mC]*dA*kA*kT*e[5mC]; antisense) [compound 548011]” the “% inhibition” value [7] was 14%.
“548487 (eT*e[5mC]*k[5mC]*dA*dT*dG*dT*d[5mC]*dA*dG*dA*dG*dT*kT*kG*e[5mC]; antisense) [compound 548487]” was tested, and the “% inhibition” value [8] was 71%.
In the case of “547975 (antisense e[5mC]*eA*kA*dA*dG*dT*d[5mC]*dA*dA*d[5mC]*dT*d[5mC]*d[5mC]*k[5mC]*kG*eG) [compound 547975]”, the “% inhibition” value [9] is reported as 44%.
For “547994 (antisense e[5mC]*e[5mC]*kA*dT*d[5mC]*d[5mC]*dA*dT*dA*dG*dA*dT*dA*kA*kT*e[5mC]) [compound 547994]”, the “% inhibition” value [9] was 53%.
With “548237 (eG*eT*kA*dT*dA*d[5mC]*dA*dT*d[5mC]*dT*dA*dG*dA*kT*kG*eA; antisense) [compound 548237]” the “% inhibition” value [1] was 22%.
In the case of “548013 (eG*eT*k[5mC]*d[5mC]*d[5mC]*d[5mC]*dA*dG*dT*dG*dT*dT*dA*k[5mC]*kA*e[5mC]; antisense) [compound 548013]”, the “% inhibition” value [7] is reported as 37%.
With “548182 (eA*eG*kT*d[5mC]*dA*dT*dG*dG*dA*dG*dA*dT*d[5mC]*kT*k[5mC]*eA; antisense) [compound 548182]” the “% inhibition” value [10] was 55%.
With “547918 (eA*eA*k[5mC]*d[5mC]*d[5mC]*dT*dG*dG*d[5mC]*dA*dA*d[5mC]*dA*kT*k[5mC]*e[5mC]; antisense) [compound 547918]” the “% inhibition” value [11] was 1% and the “% inhibition” value [12] was 65%.
In the case of “548660 (antisense eA*eT*kG*d[5mC]*dT*dT*dA*d[5mC]*d[5mC]*dT*dT*dT*d[5mC]*kT*k[5mC]*e[5mC]) [compound 548660]”, the “% inhibition” value [3] is reported as 0%.
In the case of “548012 (eT*e[5mC]*k[5mC]*d[5mC]*d[5mC]*dA*dG*dT*dG*dT*dT*dA*d[5mC]*kA*k[5mC]*eA; antisense) [compound 548012]”, the “% inhibition” value [7] is reported as 3%.
With “548084 (eA*eA*kG*dG*dG*dA*d[5mC]*d[5mC]*dA*d[5mC]*d[5mC]*dT*dG*kA*kA*eT; antisense) [compound 548084]” the “% inhibition” value [6] was 0%.
“548662 (antisense eT*eG*k[5mC]*dT*dT*dA*dA*dA*dA*dG*dT*d[5mC]*dT*k[5mC]*k[5mC]*e[5mC]) [compound 548662]” was tested, and the “% inhibition” value [3] was 5%.
With “547875 (antisense e[5mC]*eA*k[5mC]*dT*dG*d[5mC]*dT*dA*dA*d[5mC]*d[5mC]*dT*dT*kA*kG*eA) [compound 547875]” the “% inhibition” value [11] was 73% and the “% inhibition” value [12] was 57%.
“548161 (e[5mC]*eT*k[5mC]*dG*d[5mC]*dA*dT*dT*dG*dT*d[5mC]*dA*dG*k[5mC]*k[5mC]*e[5mC]; antisense) [compound 548161]” was tested, and the “% inhibition” value [10] was 59%.
“547784 (antisense eG*e[5mC]*kT*dT*dG*dA*dA*dT*dA*dA*dA*dA*dT*k[5mC]*kA*eT) [compound 547784]” was tested, and the “% inhibition” value (Table 21 experiment, HepaRG cells, electroporation with 1,000 nM antisense oligonucleotide, approx. 24 hours, PKK mRNA by RT-PCR (RTS3454), relative to untreated control cells) was 46%.
In the case of “547854 (antisense eA*eT*k[5mC]*dA*dA*d[5mC]*dT*d[5mC]*d[5mC]*dT*dT*dT*dA*kT*kA*eA) [compound 547854]”, the “% inhibition” value [11] is reported as 10% and the “% inhibition” value [12] is reported as 9%.
“548271 (antisense eT*eT*k[5mC]*dA*d[5mC]*dT*dT*dA*d[5mC]*d[5mC]*dA*d[5mC]*dA*kG*kG*eA) [compound 548271]” was tested, and the “% inhibition” value [1] was 56%.
With “548144 (eA*eT*kG*d[5mC]*d[5mC]*dA*d[5mC]*dT*d[5mC]*dT*d[5mC]*d[5mC]*dA*kT*kG*e[5mC]; antisense) [compound 548144]” the “% inhibition” value [6] was 52%.
For “548130 (eA*eT*kT*dT*dG*dA*d[5mC]*dT*dT*dG*dA*dA*d[5mC]*kT*k[5mC]*eA; antisense) [compound 548130]”, the “% inhibition” value [6] was 27%.
In the case of “548441 (antisense eT*e[5mC]*k[5mC]*dT*dA*dT*dA*dA*d[5mC]*dA*dG*dT*dA*kT*k[5mC]*eA) [compound 548441]”, the “% inhibition” value [5] is reported as 42%.
For “548311 (eT*eG*kA*d[5mC]*d[5mC]*dA*d[5mC]*d[5mC]*dT*d[5mC]*dT*d[5mC]*dG*kG*kG*eT; antisense) [compound 548311]”, the “% inhibition” value [2] was 10%.
With “548630 (antisense eT*eG*kG*dT*d[5mC]*d[5mC]*d[5mC]*dA*dA*dA*dT*dT*dG*kG*kA*eG) [compound 548630]” the “% inhibition” value [3] was 33%.
In the case of “548260 (antisense eA*eG*kG*dA*dG*dT*dT*dT*dG*dT*d[5mC]*dA*dG*kA*kA*e[5mC]) [compound 548260]”, the “% inhibition” value [1] is reported as 28%.
For “548427 (antisense e[5mC]*eT*kA*dT*dA*dA*d[5mC]*dA*dG*dT*dA*dT*d[5mC]*kA*k[5mC]*eT) [compound 548427]”, the “% inhibition” value [5] was 24%.
“548167 (eT*eG*k[5mC]*dG*dA*d[5mC]*d[5mC]*dT*d[5mC]*dG*d[5mC]*dA*dT*kT*kG*eT; antisense) [compound 548167]” was tested, and the “% inhibition” value [10] was 36%.
In the case of “548041 (eT*eG*kT*dG*dA*dG*dA*dA*dA*dG*dG*dT*dG*kT*kA*eT; antisense) [compound 548041]”, the “% inhibition” value [7] is reported as 64%.
With “548053 (eA*eT*kT*d[5mC]*dA*dA*dA*dG*dG*dA*dG*d[5mC]*d[5mC]*kT*kG*eG; antisense) [compound 548053]” the “% inhibition” value [7] was 36%.
With “548607 (eT*e[5mC]*kG*dG*dT*dG*dG*dT*dG*dG*dG*dA*dT*kT*kG*eG; antisense) [compound 548607]” the “% inhibition” value [4] was 34%.
In the case of “548461 (e[5mC]*e[5mC]*kT*dA*dT*dA*dT*d[5mC]*dA*d[5mC]*dT*dG*dT*kA*kA*e[5mC]; antisense) [compound 548461]”, the “% inhibition” value [8] is reported as 0%.
“548320 (eG*e[5mC]*kA*d[5mC]*dA*d[5mC]*dA*dG*dA*d[5mC]*dT*dT*dG*k[5mC]*k[5mC]*e[5mC]; antisense) [compound 548320]” was tested, and the “% inhibition” value [2] was 0%.
“548094 (antisense eG*eT*kT*dT*dG*d[5mC]*dA*dA*dA*d[5mC]*dT*dA*dA*kG*kG*eG) [compound 548094]” was tested, and the “% inhibition” value [6] was 74%.
For “548524 (antisense eG*e[5mC]*k[5mC]*d[5mC]*dG*dA*dT*d[5mC]*dA*d[5mC]*d[5mC]*dT*dT*kA*kG*eA) [compound 548524]”, the “% inhibition” value [8] was 45%.
With “548022 (e[5mC]*e[5mC]*kA*d[5mC]*dT*d[5mC]*dT*d[5mC]*d[5mC]*d[5mC]*d[5mC]*dA*dA*kG*kA*eA; antisense) [compound 548022]” the “% inhibition” value [7] was 69%.
For “548605 (eT*eG*kG*d[5mC]*dG*dG*dG*dA*dT*dT*dG*dG*dT*kG*kG*eT; antisense) [compound 548605]”, the “% inhibition” value [4] was 12%.
In the case of “547903 (e[5mC]*eT*k[5mC]*dA*dG*d[5mC]*dA*d[5mC]*d[5mC]*dT*dT*dT*dA*kT*kA*eG; antisense) [compound 547903]”, the “% inhibition” value [11] is reported as 62% and the “% inhibition” value [12] is reported as 6%.
For “548293 (eG*eT*k[5mC]*dA*d[5mC]*d[5mC]*dA*dG*dA*dA*d[5mC]*d[5mC]*dA*k[5mC]*kA*eT; antisense) [compound 548293]”, the “% inhibition” value [1] was 44%.
